Results reported in patent US20030236306A1, “Stabilized formulations of alpha adrenergic receptor antagonists and the uses thereof” (priority 2002, published 2003).
Structures can show the parent of a compound that is named as a salt.

Test system: local anesthesia by 2% polocaine (mepivacaine hydrochloride) with levonordefrin
Test: Reversal of local anesthesia by LARA versus saline vehicle, bilateral injection in human subjects
Format: in vivo
Conditions: three subjects, 0.05 mg/ml phentolamine mesylate (0.08 mg)
Experimental: An injection of the physiological saline vehicle (without phentolamine mesylate) served as the control. […] This was followed by injection of the phentolamine mesylate containing local anesthetic reversal agent (LARA) into one side of the oral cavity, and injection of the saline vehicle (control) solution into the opposite side of the oral cavity. The time to reversal of the local anesthetic effect on both sides was then recorded to determine whether there is a difference between the two sides.
The local anesthetic used was 2% polocaine (mepivacaine hydrochloride) with levonordefrin (1:20,000=0.05 mg/ml) (levonordefrin injection, USP) (Astra USA, Inc., Westborough, Mass. 01581). Levonordefrin is a sympathomimetic amine with a pharmacological profile similar to that of epinephrine, but with a lower potency.
Three healthy, male human subjects, age 34-50, volunteered to have local anesthetic injected in the mouth bilaterally under the lip in an easily repeatable location. The exact time of each injection was recorded. The position chosen was above (apical) the prominence of the root of the upper cuspid teeth. This is a common site selected to numb the cuspids, lateral incisors and upper lip. The volume of the local anesthetic injected was 1.7+0.1 ml on each side of the mouth. […]

## Cc1ccc(N(CC2=NCCN2)c2cccc(O)c2)cc1 [Phentolamine Mesylate, phentolamine mesylate]
  side-effects: no side-effects of any kind
